# Measurements: the SangsterLogP compilation
# Assay: method code SF-ESR, from DOI: 10.3109/10715769009149900, PMID: 2175281
# Settings: pH 2.5
row,logD,SMILES
1,1.11,CC1(C)C=C(C(=O)O)C(C)(C)N1O
2,0.46,CC1(C)[C@H](C(=O)O)[C@H](C(=O)O)C(C)(C)N1O

# Same assay, conditions: pH 7.0
row,logD,SMILES
1,0.34,CC1(C)CC(CO)C(C)(C)N1O (stereo unspecified)
2,1.78,CC1(C)C=CCC(C)(C)N1O
3,-0.21,CC1(C)CC(C(N)=O)C(C)(C)N1O (stereo unspecified)
4,0.25,CC1(C)C=C(C(N)=O)C(C)(C)N1O
5,1.31,CC1(C)C=CC(C)(C)N1O

row,SMILES,logD
1,CC1(C)CC(O)CC(C)(C)N1O,0.63
2,CC1(C)CC(=O)CC(C)(C)N1O,0.12

# Same assay, conditions: pH 12.0
row,logD,SMILES
1,1.14,CC1(C)C=C(CN2CCOCC2)CC(C)(C)N1O
2,1.58,CC1(C)C=C(CN2CCCCC2)CC(C)(C)N1O
3,0.91,CN(C)CCN(C)CC1=CC(C)(C)N(O)C1(C)C
4,0.7,CN(C)CC1=CC(C)(C)N(O)C1(C)C
5,0.36,CC1(C)CC(CN)C(C)(C)N1O (stereo unspecified)
6,1.03,CC1(C)CC(N)C(C)(C)N1O (stereo unspecified)
7,1.88,CC1(C)C=C(CN2CCCCC2)C(C)(C)N1O
